Test results reported in US12661355B2, “Compounds and methods for inducing UCP1 expression” (The Regents of the University of California, priority 2020, dated 2026).

Legend:
[1] = tested on: PKA; assay: PKA activity ELISA, cell or tissue lysates treated 30 min; type: biochemical, mouse; details: 30 min; for PKA activity: brown adipocyte lysate
Description: PKA kinase activity was measured with an ELISA that utilized a synthetic peptide as substrate for PKA and a polyclonal antibody that recognizes the phosphorylated form of the substrate (ab139435, Abcam). PKA activity was measured in lysates from cultured brown adipocytes, mouse BAT, or liver. Cells and tissues were lysed in 20 mM MOPS, 5 mM EGTA, 2 mM EDTA, and 0.1% Triton X-100 supplemented with protease and phosphatase inhibitor as described above. Protein concentration was determined by Bradford assay and 10 μg of cells, 0.25 μg of BAT extract, or 0.5 μg of liver extract were assessed for PKA activation according to the manufacturer's instruction, with minor changes. Briefly, vehicle or Z160 was incubated with brown adipocyte cells overnight or with protein lysates for 30 min, followed by one wash before the primary antibody, 60 min incubation with the primary antibody, 30 min incubation with the secondary antibody, and by 10 min washing. Absorbance was measured after the substrate was added for 20-60 min, depending the intensity of the signal.

[2] = tested on: brown adipocytes; assay: Lipolysis assay in brown adipocytes; type: cell-based, mouse; details: immortalized brown adipocytes, 10 μM overnight
Description: Lipolysis was assessed in cultured cells using medium collected over 3 h with the Adipolysis assay kit (AB100, Millipore), according to the manufacturer's protocol.

[3] = tested on: AKAP1mut cells; assay: Gene expression in AKAP1mut and AKAP1wt brown adipocyte cell lines; type: cell-based, mouse; details: 10 μM
Description: RNA levels were measured by qPCR according to known methods. Briefly, RNA was extracted with TRIzol (Invitrogen) and reverse transcribed with iScript (Bio-Rad). Real-time PCR analysis was performed with a CFX Connect (Bio-Rad).
Two gRNAs were selected using sgRNA Designer from the Broad Institute (gRNA1: […] (SEQ ID NO: 46) and gRNA2: […] (SEQ ID NO: 47)). Cloning was performed using pSpCas9 (BB)-2A-puro (PX459) V2.0 vector (Addgene plasmid #62988). Plasmid construction was confirmed by sequencing. A puromycin-sensitive brown adipocyte cell line was transfected with the two plasmids and selected with […] puromycin. Single-cell cloning was performed in a 96-well plate and clones selected by Western blot to detect AKAP1 protein knockdown, and confirmed by sequencing after PCR amplification (PCR primers: […] (SEQ ID NO: 48) and […] (SEQ ID NO: 49)).
To further assess the requirement of AKAP1 to mediate the effects of Z160, AKAP1 was inactivated in an immortalized brown adipocyte cell line (AKAP1wt) using CRISPR/Cas9 gene editing. One clone (AKAP1mut) was selected based on very low AKAP1 protein levels (FIG. 10A).

[4] = tested on: NRVM; assay: Respirometry (reserve capacity) in neonatal rat ventricular myocytes; type: cell-based; details: 10 μM Z160 for 24 h following 48 h 100 μM isoproterenol
Description: (§1) Rat H9c2 cells were grown in DMEM supplemented with 10% FBS, 25 mM glucose, 1 mM pyruvate, and 2 mM glutamine Neonatal rat ventricular myocytes (NRVM) were isolated and cultured as previously described. Briefly, 2-4 day old rats were sacrificed and myocytes and fibroblasts were isolated and separated using a Percoll density gradient. Following isolation, NRVMs were plated on gelatin-coated plates in DMEM containing 10% FBS, 25 mM glucose, 1 mM pyruvate, and 2 mM glutamine The next day, FBS was replaced by 1× insulin-transferrin-selenium supplement and the cells were treated with vehicle or 10 μM Z160 for 2 days, with or without 60 μM isoproterenol or 50 μM phenylephrine.
NRVM were seeded in a Seahorse Bioscience XF96 plate and cultured for 48 h in 10% FBS. Next, cells were treated with 100 μM ISO for 48 h, followed by 24 h of 10 μM Z160. Oxygen consumption rate (OCR) was recorded in a Seahorse Bioscience XF96 analyzer before and after the sequential injection of 0.75 μM oligomycin, 0.75 μm FCCP and 0.75 μM rotenone/myxothiazol. Reserve capacity was calculated as the difference between basal respiration and FCCP response.

[5] = biological target: T1, AKAP1 (Rattus norvegicus, UniProt O88884); assay: DARTS in H9c2 cell extracts, AKAP1; type: binding; details: 20 μM, 1 h
T1 construct: DARTS assay in H9c2 cell extracts treated with vehicle or 20 μM Z160 for 1 h; endogenous in cells; host or cells: rat H9c2 cells
T1 sequence (O88884 30-854): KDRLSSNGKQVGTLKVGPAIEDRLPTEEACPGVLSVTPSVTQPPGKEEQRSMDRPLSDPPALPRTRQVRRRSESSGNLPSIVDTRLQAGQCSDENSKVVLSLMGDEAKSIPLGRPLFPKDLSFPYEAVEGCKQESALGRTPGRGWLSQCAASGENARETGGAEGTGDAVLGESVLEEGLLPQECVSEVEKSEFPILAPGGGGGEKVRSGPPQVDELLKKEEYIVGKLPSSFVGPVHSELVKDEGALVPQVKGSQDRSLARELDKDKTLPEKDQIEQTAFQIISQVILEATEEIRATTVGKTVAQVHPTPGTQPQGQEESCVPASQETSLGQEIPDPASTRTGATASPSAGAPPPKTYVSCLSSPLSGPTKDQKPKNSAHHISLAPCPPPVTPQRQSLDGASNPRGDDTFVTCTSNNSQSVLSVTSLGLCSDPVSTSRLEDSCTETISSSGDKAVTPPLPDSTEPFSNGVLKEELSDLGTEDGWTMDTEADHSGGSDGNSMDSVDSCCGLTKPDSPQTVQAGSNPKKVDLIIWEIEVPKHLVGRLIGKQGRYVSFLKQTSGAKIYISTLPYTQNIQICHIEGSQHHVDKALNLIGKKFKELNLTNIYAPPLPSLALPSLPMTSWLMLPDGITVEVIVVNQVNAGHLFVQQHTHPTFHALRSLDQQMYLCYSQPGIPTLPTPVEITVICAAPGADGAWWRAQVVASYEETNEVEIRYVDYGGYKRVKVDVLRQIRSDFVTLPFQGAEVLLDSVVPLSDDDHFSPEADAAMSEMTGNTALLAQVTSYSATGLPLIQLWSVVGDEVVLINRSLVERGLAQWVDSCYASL
Description: as §1
ARTS assays were performed according to known methods. Briefly, BAT or cells within a 10 cm dish were lysed with 600 μl M-PER buffer containing protease and phosphatase inhibitors. Debris was pelleted by centrifugation at 18,000 g for 10 min at 4° C., and the lysates were harvested and supplemented with TNC buffer (50 mM Tris-HCl, 50 mM NaCl, 10 mM CaCl2). The lysates were split into two tubes and treated with either vehicle or 20 μM Z160 for 1 h at room temperature. For experiment with BAT, 100 μg of lysate was incubated with different Z160 concentrations. […]

Compound: COc1ccc(NC(=O)CSc2nc3ccccc3c(=O)[nH]2)c(OC)c1 [Z160]
- PKA activity ([1]; 25 μM): significant increase
- PKA activity ([1]; 50 μM): significant increase
- PKA activation ([1]; mouse BAT extract, 25 μM): stimulated PKA activation
- PKA activation ([1]; mouse liver extract, 25 μM): stimulated PKA activation
- lipolysis [2]: induced lipolysis
- induced expression of Hoxa5, Cidea, Elovl3, Acox1 and Cpt1b in AKAP1mut ([3]; AKAP1mut vs AKAP1wt): blunted or reduced
- Ucp1 expression response in AKAP1mut cells ([3]; AKAP1mut): did not respond
- Ppargc1a expression ([3]; both AKAP1wt and AKAP1mut cells): increased
- effect on isoproterenol-induced reduction in reserve capacity [4]: prevented the ISO-induced reduction in reserve capacity
- pronase susceptibility of AKAP1 [5]: not
